System: NASH patients
Assay: Exposure-response: probability of NASH resolution or fibrosis response by Cave,ss
Format: in vivo, human
Method: Various body weight cutoffs for dosing were evaluated.
Study median body weight was 100 kg. […] Study median BMI was 35 kg/m^2.

## CC(C)c1cc(Oc2c(Cl)cc(-n3nc(C#N)c(=O)[nH]c3=O)cc2Cl)n[nH]c1=O [Resmetirom, 2-(3,5-dichloro-4-((5-isopropyl-6-oxo-1,6-dihydropyridazin-3-yl)oxy)phenyl)-3,5-dioxo-2,3,4,5-tetrahydro-1,2,4-triazine-6-carbonitrile]
Cave,ss Q1: [20-155)
  Estimated Probability of response (NASH resolution or fibrosis response): 33.6%
  Observed Probability of response (NASH resolution or fibrosis response): 45.5%
Cave,ss Q2: [155-219)
  Estimated Probability of response (NASH resolution or fibrosis response): 37.3%
  Observed Probability of response (NASH resolution or fibrosis response): 44.0%
Cave,ss Q3: [219-321)
  Estimated Probability of response (NASH resolution or fibrosis response): 41.9%
  Observed Probability of response (NASH resolution or fibrosis response): 41.8%
Cave,ss Q4: [321-1326]
  Estimated Probability of response (NASH resolution or fibrosis response): 56.2%
  Observed Probability of response (NASH resolution or fibrosis response): 55.0%
Q1: [20-155)
  Mean Cave,ss: 120 ng/mL
Q2: [155-219)
  Mean Cave,ss: 186 ng/mL
Q3: [219-321)
  Mean Cave,ss: 263 ng/mL
Q4: [321-1326]
  Mean Cave,ss: 495 ng/mL

From patent US12377104B1, “Methods for treating a fatty liver disease” (Madrigal Pharmaceuticals, Inc., priority 2024, dated 2025)
